In US11795173B1, “Substituted pyridines as PARP1 inhibitors” (Xinthera, Inc., priority 2022, dated 2023):

Legend:
[1] = tested on: DLD-1 BRCA2(−/−) cells; assay: Cell growth inhibition assay (CellTiter-Glo), DLD-1 BRCA2(−/−); assay type: cell-based; details: Homo sapiens, DLD-1, 168 h; cell viability, CellTiter Glo 2.0, 7 days
Procedure: The objective of this study is to evaluate the effect of compound disclosed herein on cell proliferation through the cell viability assay in DLD-1 BRCA2(−/−) and parental isogenic pair and MDA-MB-436 (mutated BRCA1) cell lines.
DLD-1 BRCA2(−/−) and parental isogenic pair were cultured in RPMI 1640 supplemented with 10% fetal bovine serum (FBS), and MDA-MB-436 cells were cultured in DMEM supplemented with 10% FBS. Both are culture at 37° C. with 5% CO2. […] The cells were seeded into the plate in the density of 50 cells/well (DLD-1 parental), 200 cells/well (DLD-1 BRCA2−/−), or 500 cells/well (MDA-MB-436). After a short spun, the cells were cultured in a well moisturized incubator at 37° C. with 5% CO2 for 7 days without disturbance. The cell viability was measured by CellTiter Glo 2.0 assay kit (Promega, G9243), and growth inhibition rate was calculated and plotted against final compound concentration, and the data were fitted in Xfit to generate IC50.

[2] = tested on: MDA-MB-436 (mutated BRCA1) cells; assay: Cell growth inhibition assay (CellTiter-Glo), MDA-MB-436; assay type: cell-based; details: Homo sapiens, MDA-MB-436, 168 h; cell viability, CellTiter Glo 2.0, 7 days
Description: The objective of this study is to evaluate the effect of compound disclosed herein on cell proliferation through the cell viability assay in DLD-1 BRCA2(−/−) and parental isogenic pair and MDA-MB-436 (mutated BRCA1) cell lines. The CellTiter-Glo (CTG) based cell viability assay is designed to determine the number of viable cells in the culture because of compound effect, by quantifying ATP, which indicates the presence of metabolically active cells.
DLD-1 BRCA2(−/−) and parental isogenic pair were cultured in RPMI 1640 supplemented with 10% fetal bovine serum (FBS), and MDA-MB-436 cells were cultured in DMEM supplemented with 10% FBS. Both are culture at 37° C. with 5% CO2. Invention compounds were distributed to the 384 well plate (Corning, 3764) using Echo acoustic liquid handler to form a 1:3 serially diluted final concentration with top dose of 10 or 30 μM. The cells were seeded into the plate in the density of 50 cells/well (DLD-1 parental), 200 cells/well (DLD-1 BRCA2−/−), or 500 cells/well (MDA-MB-436). After a short spun, the cells were cultured in a well moisturized incubator at 37° C. with 5% CO2 for 7 days without disturbance. The cell viability was measured by CellTiter Glo 2.0 assay kit (Promega, G9243), and growth inhibition rate was calculated and plotted against final compound concentration, and the data were fitted in Xfit to generate IC50.

SMILES	EC50 [1]	EC50 [2]
[2H]C1([2H])Cc2c(c3ccc(CN4CCN(c5ccc(C(=O)NC)nc5F)CC4)c(F)c3[nH]c2=O)O1 (single isomer, unassigned) [Example 31, 6-fluoro-5-(4-((6-fluoro-4-oxo-2,3,4,5-tetrahydrofuro[3,2-c]quinolin-7-yl-2,2-d2)methyl)piperazin-1-yl)-N-methylpicolinamide]	7.7 nM	6.9 nM
[2H]C1([2H])COc2c1c(=O)[nH]c1c(F)c(CN3CCN(c4ccc(C(=O)NC)nc4F)CC3)ccc21 (single isomer, unassigned) [Example 32, 6-fluoro-5-(4-((6-fluoro-4-oxo-2,3,4,5-tetrahydrofuro[3,2-c]quinolin-7-yl-3,3-d2)methyl)piperazin-1-yl)-N-methylpicolinamide]	5.4 nM	9.2 nM
CNC(=O)c1ccc(N2CCN(Cc3ccc4c([nH]c(=O)c5ccnn54)c3F)CC2)cn1 [Example 2]	–	68 nM
O=C(NC1CC1)c1ccc(N2CCN(Cc3ccc4c([nH]c(=O)c5ccnn54)c3F)CC2)c(F)n1 [Example 3]	9.1 nM	4.3 nM
CNC(=O)c1ccc(N2CCN(Cc3ccc4c([nH]c(=O)c5ccoc54)c3F)CC2)c(F)n1 [Example 6, 6-fluoro-5-[4-({6-fluoro-4-oxo-5H-furo[3,2-c]quinolin-7-yl}methyl)piperazin-1-yl]-N-methylpyridine-2-carboxamide]	3.8 nM	2.1 nM
CNC(=O)c1ccc(N2CCN(Cc3ccc4c([nH]c(=O)n5cccc45)c3F)CC2)c(F)n1 [Example 7, 6-fluoro-5-[4-({7-fluoro-5-oxo-6H-pyrrolo[1,2-c]quinazolin-8-yl}methyl)piperazin-1-yl]-N-methylpyridine-2-carboxamide]	2.1 nM	1.3 nM
CNC(=O)c1ccc(N2CCN(Cc3ccc4c([nH]c(=O)c5c(Cl)cnn54)c3F)CC2)c(F)n1 [Example 8]	1.8 nM	0.94 nM
CNC(=O)c1ccc(N2CCN(Cc3ccc4c([nH]c(=O)c5cccn54)c3F)CC2)c(F)n1 [Example 10, 6-fluoro-5-[4-({6-fluoro-4-oxo-5H-pyrrolo[1,2-a]quinoxalin-7-yl}methyl)piperazin-1-yl]-N-methylpyridine-2-carboxamide]	0.64 nM	0.3 nM
O=C(NCC(F)F)c1ccc(N2CCN(Cc3ccc4c([nH]c(=O)c5ccoc54)c3F)CC2)c(F)n1 [Example 11]	1.1 nM	0.86 nM
O=C(NCC(F)F)c1ccc(N2CCN(Cc3ccc4c([nH]c(=O)c5ccnn54)c3F)CC2)c(F)n1 [Example 12]	1.6 nM	0.9 nM
Cc1cc2c(=O)[nH]c3c(F)c(CN4CCN(c5ccc(C(=O)NCC(F)F)nc5F)CC4)ccc3n2n1 [Example 13]	1.4 nM	1.2 nM
O=C(NC1CC1)c1ccc(N2CCN(Cc3ccc4c([nH]c(=O)c5ccoc54)c3F)CC2)c(F)n1 [Example 14]	1.2 nM	0.68 nM
O=C(NCC(F)F)c1ccc(N2CCN(Cc3ccc4c5c(c(=O)[nH]c4c3F)CCO5)CC2)c(F)n1 [Example 15]	1.9 nM	0.75 nM
O=C(NC1CC1)c1ccc(N2CCN(Cc3ccc4c5c(c(=O)[nH]c4c3F)CCO5)CC2)c(F)n1 [Example 16]	5.1 nM	3.1 nM
COCCNC(=O)c1ccc(N2CCN(Cc3ccc4c([nH]c(=O)c5cc(C)nn54)c3F)CC2)c(F)n1 [Example 17]	1.5 nM	1.3 nM
CNC(=O)c1ccc(N2CCN(Cc3ccc4c([nH]c(=O)c5cnn(C)c54)c3F)CC2)c(F)n1 [Example 19, 6-fluoro-5-[4-({6-fluoro-1-methyl-4-oxo-5H-pyrazolo[4,3-c]quinolin-7-yl}methyl)piperazin-1-yl]-N-methylpyridine-2-carboxamide]	57 nM	31 nM
